From BindingDB's records for doi:10.1021/jm00107a048 (Roche Research Center, 1991)

target: Platelet-activating factor receptor (Canis lupus familiaris); experiment: PAF-antagonist activity determined in dog platelets by PAF-binding assay

| Compound | IC50 [nM] |
| --- | --- |
| Cc1nnc2n1-c1sc(C#CCC34CCCc5cccc(c53)NC4=O)cc1C(c1ccccc1Cl)=NC2 (stereo not given) | 0.7 |
| Cc1nnc2n1-c1sc(C#CCn3c4c(c5cc(Cl)ccc53)CCCCC4)cc1C(c1ccccc1Cl)=NC2 | 70 |
| Cc1nnc2n1-c1sc(I)cc1C(c1cc([N+](=O)[O-])ccc1Cl)=NC2 | 360 |
| Cc1nnc2n1-c1sc(C#CCn3c4c(c5ccccc53)CCCCC4)cc1C(c1ccccc1Cl)=NC2 | 15 |
| Cc1nnc2n1-c1sc(C#CCn3c(=O)n(C)c4ccccc43)cc1C(c1ccccc1Cl)=NC2 | 0.3 |
| O=C1CCc2ccccc2N1CC#Cc1ccc2c(c1)C(c1ccccc1F)=NCc1nnc(C(F)(F)F)n1-2 | 200 |
| Cc1nnc2n1-c1sc(C#CCn3c(=O)c4ccccc4c4ccccc43)cc1C(c1ccccc1Cl)=NC2O (stereo not given) | 25 |
| Cc1nnc2n1-c1ccc(I)cc1C(c1ccccc1F)=NC2 | 1000 |
| Cc1nnc2n1-c1ccc(C#CCN3C(=O)CCc4ccccc43)cc1C(c1ccccc1F)=NC2 | 20 |
| C=C=Cn1c(=O)n(CC#Cc2cc3c(s2)-n2c(C)nnc2CN=C3c2ccccc2Cl)c2ccccc21 | 6 |
| Cc1nnc2n1-c1sc(I)cc1C(c1ccccc1Cl)=NC2C (stereo not given) | 120 |
| O=C1CCc2ccccc2N1CC#Cc1ccc2c(c1)C(c1ccc(Cl)cc1)=NCc1nnc(C(F)(F)F)n1-2 | 1000 |
| Cc1nnc2n1-c1ccc(C#CCOc3cccnc3)cc1C(c1ccccc1Cl)=NC2 | 130 |
| Cc1nnc2n1-c1sc(C#CCN3C(=O)COc4ccc(Cl)cc43)cc1C(c1ccccc1Cl)=NC2 | 5 |
| Cc1nnc2n1-c1sc(C#CCn3c(=O)c4ccccc4c4ccccc43)cc1C(c1ccccc1Cl)NC2=O (stereo not given) | 560 |
| Cc1nnc2n1-c1sc(C#CCn3ccc4ccccc4c3=O)cc1C(c1ccccc1Cl)=NC2 | 1 |
| Cc1nnc2n1-c1sc(C#CCN3C(=O)Cc4ccccc43)cc1C(c1ccccc1Cl)=NC2 | 3 |
| Cc1nnc2n1-c1sc(C#CCn3c4ccccc4c4ccccc43)cc1C(c1ccccc1Cl)=NC2 | 120 |
| Cc1nnc2n1-c1sc(C#CCOc3cccnc3)cc1C(c1ccccc1Cl)=NC2 | 4 |
| Cc1nnc2n1-c1ccc(C#CCN3C(=O)c4ccccc4C3=O)cc1C(c1ccccc1Cl)=NC2 | 20 |

| Compound | IC50 [nM] |
| --- | --- |
| Cc1nnc2n1-c1ccc(C#CCN3C(=O)c4ccccc4C3=O)cc1C(c1ccccc1F)NC2 (stereo not given) | 110 |
| CCc1nnc2n1-c1ccc(C#CCN3C(=O)c4ccccc4C3=O)cc1C(c1ccccc1F)=NC2 | 100 |
| COc1cc2c(cc1OC)C(=O)N(CC#Cc1cc3c(s1)-n1c(C)nnc1CN=C3c1ccccc1Cl)CC2 | 25 |
| Cc1nnc2n1-c1ccc(C#CCN3C(=O)CCc4ccccc43)cc1C(c1ccc(Cl)cc1)=NC2 | 100 |
| Cc1nnc2n1-c1sc(C#CCn3c4c(c5ccccc53)CCCC4)cc1C(c1ccccc1Cl)=NC2 | 7 |
| Cc1nnc2n1-c1sc(C#CCn3c(=O)c4cc(Cl)ccc4c4ccc(Cl)cc43)cc1C(c1ccccc1Cl)=NC2 | 30 |
| Cc1nnc2n1-c1sc(C#CCn3c(=O)n(-c4ccccc4)c4ccccc43)cc1C(c1ccccc1Cl)=NC2 | 1 |
| Cc1nnc2n1-c1sc(C#CCn3c(=O)c4ccccc4c4ccccc43)cc1C(c1ccccc1Cl)=NC2C (stereo not given) | 250 |
| Cc1nnc2n1-c1sc(C#CCn3cnc4ccccc43)cc1C(c1ccccc1Cl)=NC2 | 5 |
| Cc1nnc2n1-c1sc(C#CCN3C(=O)CCc4cc(Cl)cc(Cl)c43)cc1C(c1ccccc1Cl)=NC2 | 9 |
| Cc1nnc2n1-c1sc(C#CCn3c(=O)n(CCN(C)C)c(=O)c4ccccc43)cc1C(c1ccccc1Cl)=NC2 | 150 |
| Cc1nnc2n1-c1sc(C#CCn3c(=O)c4ccccc4c4ccccc4c3=O)cc1C(c1ccccc1Cl)=NC2 | 51 |
| Cc1nnc2n1-c1ccc(C#CCN3C(=O)CCc4ccccc43)cc1C(c1ccccc1F)=N[C@H]2C | 6 |
| Cc1nnc2n1-c1sc(C#CCn3c(=O)ccc4ccccc43)cc1C(c1ccccc1Cl)=NC2 | 2 |
| Cc1nnc2n1-c1sc(C#CCN3C(=O)NCc4ccccc43)cc1C(c1ccccc1Cl)=NC2 | 6 |
| O=C1c2ccccc2C(=O)N1CC#Cc1ccc2c(c1)C(c1ccccc1F)=NCc1nncn1-2 | 1000 |
| O=c1c2ccccc2c2ccccc2n1CC#Cc1cc2c(s1)-n1c(CO)nnc1CN=C2c1ccccc1Cl | 75 |
| Cc1nnc2n1-c1ccc(I)cc1C(c1ccccc1F)NC2 (stereo not given) | 1000 |
| Cc1nnc2n1-c1sc(C#CCN3C(=O)COc4ccccc43)cc1C(c1ccccc1Cl)=NC2 | 0.7 |
| Cc1nnc2n1-c1sc(C#CCN3C(=O)CCc4ccccc43)cc1C(c1cc([N+](=O)[O-])ccc1Cl)=NC2 | 75 |

| Compound | IC50 [nM] |
| --- | --- |
| Cc1nnc2n1-c1sc(C#CCN3C(=O)C(=O)c4ccccc43)cc1C(c1ccccc1Cl)=NC2 | 7 |
| Cc1nnc2n1-c1sc(C#CCn3c(=O)n(CCN(C)C)c4ccccc43)cc1C(c1ccccc1Cl)=NC2 | 30 |
| Cc1nnc2nc(-c3ccccc3F)c3cc(C#CCN4C(=O)c5ccccc5C4=O)ccc3n12 | 300 |
| Cc1nnc2n1-c1sc(C#CCN3C(=O)c4cccc5cccc3c45)cc1C(c1ccccc1Cl)=NC2 | 5 |
| Cc1nnc2n1-c1sc(C#CCn3c4c(c5cc(Cl)ccc53)CCCC4)cc1C(c1ccccc1Cl)=NC2 | 90 |
| Cc1nnc2n1-c1sc(C#CCn3ncc4ccccc43)cc1C(c1ccccc1Cl)=NC2 | 1 |
| Cc1nnc2n1-c1sc(C#CCn3c(=O)n(C)c(=O)c4ccccc43)cc1C(c1ccccc1Cl)=NC2 | 0.6 |
| Cc1nnc2n1-c1sc(C#CCn3c(=O)[nH]c4ccccc43)cc1C(c1ccccc1Cl)=NC2 | 9 |
| Cc1nnc2n1-c1sc(C#CCn3c(=O)c4ccccc4c4ccccc43)cc1C(c1cc(O)ccc1Cl)=NC2 | 15 |
| Cc1nnc2n1-c1sc(C#CCN3C(=O)Cn4ccc5c(Cl)ccc3c54)cc1C(c1ccccc1Cl)=NC2 | 15 |
| Cc1nnc2n1-c1sc(C#CCN3C(=O)CCc4ccccc43)cc1C(c1ccccc1Cl)=NC2 | 0.2 |
| Cc1nnc2n1-c1sc(C#CCn3c(=O)c4ccccc4c4ccccc43)cc1C(c1ccccc1Cl)=NC2 | 13 |
| Cc1nnc2n1-c1ccc(I)cc1C(c1ccccc1Cl)=NC2 | 1000 |
| Cc1nnc2n1-c1sc(C#CCN3C(=O)CC(C)(C)c4ccccc43)cc1C(c1ccccc1Cl)=NC2 | 12 |
| Cc1nnc2n1-c1sc(C#CCN3C(=O)C4(C)CCCc5cccc3c54)cc1C(c1ccccc1Cl)=NC2 (stereo not given) | 12 |
| Cc1nnc2n1-c1sc(C#CCN3C(=O)CCc4ccc(Cl)cc43)cc1C(c1ccccc1Cl)=NC2 | 7 |
| Cc1nnc2n1-c1sc(C#CCN3C(=O)CCc4ccccc43)cc1C(c1cc(O)ccc1Cl)=NC2 | 80 |
| Cc1nnc2n1-c1ccc(C#CCN3C(=O)c4ccccc4C3=O)cc1C(c1ccccc1F)=NC2 | 10 |
| Cc1nnc2n1-c1sc(C#CCN3Cc4cccc5cccc(c45)C3=O)cc1C(c1ccccc1Cl)=NC2 | 4 |
| Cc1nnc2n1-c1sc(C#CCN3C(=O)c4cccc5cccc(c45)C3=O)cc1C(c1ccccc1Cl)=NC2 | 12 |
